According to US20250188110A1, “SPECIFIC SMALL MOLECULE INHIBITORS THAT BLOCK KMT9 METHYLTRANSFERASE ACTIVITY AND FUNCTION” (ALBERT-LUDWIGS-UNIVERSITÄT FREIBURG, priority 2021, published 2025):
pIC50, pKd: −log10 of the molar value.

Assays:
[1] = target: T1, KMT9 (Homo sapiens, UniProt Q9Y5N5); test: Microscale thermophoresis (MST) KMT9 binding; conditions: microscale thermophoresis, His-tag labelled KMT9 (20 nM); read-out: MST
T1 sequence (Q9Y5N5 1-214): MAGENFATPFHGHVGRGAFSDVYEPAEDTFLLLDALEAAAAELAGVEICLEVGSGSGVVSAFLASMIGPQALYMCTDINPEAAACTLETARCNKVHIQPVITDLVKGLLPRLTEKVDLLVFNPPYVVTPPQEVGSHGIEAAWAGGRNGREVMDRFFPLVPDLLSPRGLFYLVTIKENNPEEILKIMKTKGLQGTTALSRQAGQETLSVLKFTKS
T1 sequence (Q9UI30 1-120 isoform Q9UI30-2 partner): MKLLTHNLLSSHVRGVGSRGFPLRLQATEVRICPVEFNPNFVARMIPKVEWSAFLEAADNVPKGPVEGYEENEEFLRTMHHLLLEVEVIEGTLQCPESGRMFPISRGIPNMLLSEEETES
In short: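 Kd from microscale thermophoresis: compound series against 20 nM His-KMT9 labelled via RED-Tris-NTA, buffer 25 mM HEPES (pH 7.5)/100 mM NaCl/1 mM DTT/0.05% Tween, 40% MST power, 100% LED. Reported as classes: A ≤10 nM, B >10–100 nM, C >100–1000 nM, D >1000 nM.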

[2] = target: T1, KMT9; test: KMT9 thermal shift assay (SyproOrange); format: binding; conditions: ΔTm; 500 µM compound, 2 μM KMT9, 5X SO; read-out: Thermal shift
In short: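 ΔTm versus DMSO-only control is reported in bins (>20 K, 15–20 K, 10–15 K, ≤10 K), using Tm from Boltzmann sigmoidal fits of SyproOrange melt curves. KMT9 with compound in pH 8.5 BTP buffer containing MgCl2 and DTT was preincubated at 25° C, then ramped 1° C per 15 s up to 95° C.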

[3] = target: T1, KMT9; test: KMT9 methyltransferase inhibition assay, 3H-SAM scintillation (entries 1-154); format: biochemical; conditions: entries 1-154: 3H-SAM assay, 25 nM KMT9, 5 μM ETF1
In short: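 Tritium transfer from SAM (0.3 μM 3H-SAM, 0.7 μM unlabelled, final) to 5 μM ETF1 fragment by 25 nM KMT9 was measured after 2 h at 30° C, pH 8.5. Precipitated peptide was collected on filters and scintillation counted; IC50 came from a four-parameter fit of inhibition normalised to controls.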

| pKd [1] | ΔTm at 500 µM [2] [°C] | pIC50 [3] | Compound |
| --- | --- | --- | --- |
| < 6.00 | ≤ 10 | < 5.00 | CNc1ncnc2c1ccn2[C@@H]1C[C@H](C(=O)NCC2CCCCN2)[C@@H](O)[C@H]1O (stereo partly drawn) [350 (254), (1S,2R,3S,4R)-2,3-dihydroxy-4-(4-(methylamino)-7H-pyrrolo[2,3-d]pyrimidin-7-yl)-N-(piperidin-2-ylmethyl) cyclopentane-1-carboxamide] |
| 7.00 to 8.00 | 10 to 15 | 5.00 to 6.00 | CNc1ncnc2c1ccn2[C@@H]1C[C@H](C(=O)N(C)CCCNCCc2cccc(Oc3ccccc3)c2)[C@@H](O)[C@H]1O [351 (255), (1S,2R,3S,4R)-2,3-dihydroxy-N-methyl-4-(4-(methylamino)-7H-pyrrolo[2,3-a]pyrimidin-7-yl)-N-(3-((3-phenoxyphenethyl)amino)propyl) cyclopentane-1-carboxamide] |
| 6.00 to 7.00 | 10 to 15 | 5.00 to 6.00 | CNc1ncnc2c1ccn2[C@@H]1C[C@H](C(=O)NCCCNCc2cccc(Oc3ccccc3)c2)[C@@H](O)[C@H]1O [353 (257), (1S,2R,3S,4R)-2,3-dihydroxy-4-(4-(methylamino)-7H-pyrrolo[2,3-d]pyrimidin-7-yl)-N-(3-((3-phenoxybenzyl)amino)propyl) cyclopentane-1-carboxamide] |
| 7.00 to 8.00 | 15 to 20 | 5.00 to 6.00 | CNc1ncnc2c1ccn2[C@@H]1C[C@H](C(=O)NCCCNCCc2cccc(Oc3ccccc3)c2)[C@@H](O)[C@H]1O [354 (258), (1S,2R,3S,4R)-2,3-dihydroxy-4-(4-(methylamino)-7H-pyrrolo[2,3-d]pyrimidin-7-yl)-N-(3-((3-phenoxyphenethyl)amino)propyl) cyclopentane-1-carboxamide] |
| 6.00 to 7.00 | 10 to 15 | < 5.00 | CNc1ncnc2c1ccn2[C@@H]1C[C@H](C(=O)NCCNCCc2cccc(Oc3ccccc3)c2)[C@@H](O)[C@H]1O [356 (260), (1S,2R,3S,4R)-2,3-dihydroxy-4-(4-(methylamino)-7H-pyrrolo[2,3-d]pyrimidin-7-yl)-N-(2-((3-phenoxyphenethyl)amino)ethyl) cyclopentane-1-carboxamide] |
| 6.00 to 7.00 | ≤ 10 | < 5.00 | CNc1ncnc2c1ccn2[C@@H]1C[C@H](CN(CCCNCCc2cccc(Oc3ccccc3)c2)CC2CC2)[C@@H](O)[C@H]1O [360 (270)] |
| < 6.00 | ≤ 10 | < 5.00 | CNc1ncnc2c1ccn2[C@@H]1C[C@H](CN(CCCNCCc2cccc(Oc3ccccc3)c2)NC)[C@@H](O)[C@H]1O [367 (271), (1S,2R,3R,5R)-3-((2-methyl-1-(3-((3-phenoxyphenethyl)amino)propyl) hydrazineyl)methyl)-5-(4-(methylamino)-7H-pyrrolo[2,3-d]pyrimidin-7-yl) cyclopentane-1,2-diol] |
| 6.00 to 7.00 | 10 to 15 | < 5.00 | CCN(CCCNCCc1ccc2ccccc2c1)C[C@H]1C[C@@H](n2ccc3c(NC)ncnc32)[C@H](O)[C@@H]1O [375 (279), (1S,2R,3R,5R)-3-((ethyl(3-((2-(naphthalen-2-yl)ethyl)amino)propyl)amino)methyl)-5-(4-(methylamino)-7H-pyrrolo[2,3-d]pyrimidin-7-yl) cyclopentane-1,2-diol] |

Second part, the molecule before the results:

| Compound | pKd [1] | ΔTm at 500 µM [2] [°C] | pIC50 [3] |
| --- | --- | --- | --- |
| CNc1ncnc2c1ccn2[C@@H]1C[C@H](C(=O)NCCCNCc2ccc(Oc3ccc(Cl)cc3)c(F)c2)[C@@H](O)[C@H]1O [352 (256), (1S,2R,3S,4R)—N-(3-((4-(4-chlorophenoxy)-3-fluorobenzyl)amino)propyl)-2,3-dihydroxy-4-(4-(methylamino)-7H-pyrrolo[2.3-d]pyrimidin-7-yl)cyclopentane-1-carboxamide] | 6.00 to 7.00 | 10 to 15 | < 5.00 |
| CNc1ncnc2c1ccn2[C@@H]1C[C@H](C(=O)NCCCNCCc2ccc(Oc3ccc(Cl)cc3)c(F)c2)[C@@H](O)[C@H]1O [355 (259), (1S,2R,3S,4R)—N-(3-((4-(4-chlorophenoxy)-3-fluorophenethyl)amino)propyl)-2,3-dihydroxy-4-(4-(methylamino)-7H-pyrrolo[2,3-a]pyrimidin-7-yl) cyclopentane-1-carboxamide] | 6.00 to 7.00 | 10 to 15 | 6.00 to 7.00 |
| CNc1ncnc2c1ccn2[C@@H]1C[C@H](CNCC(F)(F)CNCCc2ccc3ccccc3c2)[C@@H](O)[C@H]1O [357 (261), (1S,2R,3R,5R)-3-(((2,2-difluoro-3-((2-(naphthalen-2-yl)ethyl)amino)propyl)amino)methyl)-5-(4-(methylamino)-7H-pyrrolo[2,3-a]pyrimidin-7-yl) cyclopentane-1,2-diol] | < 6.00 | ≤ 10 | < 5.00 |
| CNc1ncnc2c1ccn2[C@@H]1C[C@H](CN2CC(CNCCc3ccc4ccccc4c3)C2)[C@@H](O)[C@H]1O [360 (264), (1R,2S,3R,5R)-3-(4-(methylamino)-7H-pyrrolo[2,3-d]pyrimidin-7-yl)-5-((3-(((2-(naphthalen-2-yl)ethyl)amino)methyl)azetidin-1-yl)methyl) cyclopentane-1,2-diol] | < 6.00 | ≤ 10 | < 5.00 |
| CNc1ncnc2c1ccn2[C@@H]1C[C@H](CN(CCCNCCc2cccc(Oc3ccccc3)c2)C(C)C)[C@@H](O)[C@H]1O [362 (266), (1S,2R,3R,5R)-3-((isopropyl(3-((3-phenoxyphenethyl)amino)propyl)amino)methyl)-5-(4-(methylamino)-7H-pyrrolo[2,3-d]pyrimidin-7-yl) cyclopentane-1,2-diol] | 6.00 to 7.00 | 10 to 15 | 5.00 to 6.00 |
| CCN(CCCNCCc1cccc(Oc2ccccc2)c1)C[C@H]1C[C@@H](n2ccc3c(NC)ncnc32)[C@H](O)[C@@H]1O [364 (268), (1S,2R,3R,5R)-3-((ethyl(3-((3-phenoxyphenethyl)amino)propyl)amino)methyl)-5-(4-(methylamino)-7H-pyrrolo[2,3-d]pyrimidin-7-yl) cyclopentane-1,2-diol] | 6.00 to 7.00 | 10 to 15 | 5.00 to 6.00 |
| CNc1ncnc2c1ccn2[C@@H]1C[C@H](CNCCCNCCc2ccc3ccccc3c2)[C@@H](O)[C@H]1O [368 (272), (1R,2S,3R,5R)-3-(4-(methylamino)-7H-pyrrolo[2,3-a]pyrimidin-7-yl)-5-(((3-((2-(naphthalen-2-yl)ethyl)amino)propyl)amino)methyl) cyclopentane-1,2-diol] | < 6.00 | 10 to 15 | < 5.00 |
| CNc1ncnc2c1ccn2[C@@H]1C[C@H](CNCCCNCCc2ccc(Oc3ccc(Cl)cc3)c(F)c2)[C@@H](O)[C@H]1O [370 (274), (1S,2R,3R,5R)-3-(((3-((4-(4-chlorophenoxy)-3-fluorophenethyl)amino)propyl)amino)methyl)-5-(4-(methylamino)-7H-pyrrolo[2,3-a]pyrimidin-7-yl) cyclopentane-1,2-diol] | < 6.00 | 10 to 15 | 5.00 to 6.00 |
| CNc1ncnc2c1ccn2[C@@H]1C[C@H](CNCCCNCCc2cccc(Sc3ccccc3)c2)[C@@H](O)[C@H]1O [372 (276), (1R,2S,3R,5R)-3-(4-(methylamino)-7H-pyrrolo[2,3-a]pyrimidin-7-yl)-5-(((3-((3-(phenylthio)phenethyl)amino)propyl)amino)methyl) cyclopentane-1,2-diol] | 6.00 to 7.00 | 10 to 15 | 5.00 to 6.00 |
